Data: patent US9763445B2, “Safened herbicidal compositions comprising a pyridine carboxylic acid herbicide” (Dow AgroSciences, LLC, priority 2014, dated 2017)

Columns and labels:
common sunflower (HELAN) = assay: Postemergence greenhouse trial, % visual injury on common sunflower; assay type: in vivo, Helianthus annuus
Description: (§1) Seeds of the desired test plant species were planted in Sun Gro MetroMix® 306 planting mixture, which typically has a pH of 6.0 to 6.8 and an organic matter content of about 30 percent, in plastic pots with a surface area of 103.2 square centimeters (cm^2). When required to ensure good germination and healthy plants, a fungicide treatment and/or other chemical or physical treatment was applied. The plants were grown for 7-36 days (d) in a greenhouse with an approximate 14-hour (h) photoperiod which was maintained at about 23° C. during the day and 22° C. during the night. Nutrients and water were added on a regular basis and supplemental lighting was provided with overhead metal halide 1000-Watt lamps as necessary. The plants were employed for testing when they reached the second or third true leaf stage.
Weighed amounts of technical material were dissolved in a volume of 97:3 volume per volume (v/v) acetone/dimethyl sulfoxide (DMSO) to stock solutions. […] The concentrated stock solutions were diluted with an aqueous mixture of 1.5% v/v of Agri-dex crop oil concentrate to provide the appropriate application rates. Compound requirements are based upon a 12 milliliter (mL) application volume at a rate of 187 liters per hectare (L/ha). Stocks solutions of the safeners were prepared following the same procedure. Spray solutions of the safeners and experimental compound mixtures were prepared by adding the stock solutions to the appropriate amount of dilution solution to form a 12 mL spray solution in two-way combinations. Formulated compounds were applied to the plant material with an overhead Mandel track sprayer equipped with 8002E nozzles calibrated to deliver 187 L/ha over an application area of 0.503 square meters (m^2) at a spray height of 18 inches (43 centimeters (cm)) above average plant canopy. Control plants were sprayed in the same manner with the solvent blank. All herbicide application (component a) rates are in g ae/ha and all safener (component b) rates are in g ai/ha.
(§2) The treated plants and control plants were placed in a greenhouse as described above and watered by sub-irrigation to prevent wash-off of the test compounds. After 20-22 d, the condition of the test plants as compared with that of the control plants was determined visually and scored on a scale of 0 to 100 percent where 0 corresponds to no injury and 100 corresponds to complete kill. The condition of the test plants was compared with that of the control plants as determined visually and scored on a scale of 0 to 100 percent, where 0 corresponds to no injury and 100 corresponds to complete kill. Colby's equation was used to determine the herbicidal effects expected from the mixtures.
The safener cloquintocet-acid and a number of agriculturally acceptable esters and salts (-mexyl, -dimethylammonium salt and -triethylammonium salt) were combined in varying ratios with compound 1 and applied to spring wheat (TRZAS), winter wheat (TRZAW), and spring barley (HORVS), and the phytotoxicity of the herbicidal compositions was measured. In addition, the efficacy of the herbicidal composition on pigweed (AMARE, Amaranthus retroflexus), nutsedge (CYPES, Cyperus esculentus), common sunflower (HELAN, Helianthus annuus), and common sorghum (SORVU, Sorghum vulgare).

poinsettia (EPHHL) = assay: Postemergence greenhouse trial, % visual injury on poinsettia; assay type: in vivo, Euphorbia heterophylla; conditions: alone, 35 g/ha
Description: as §1
(§3) Weighed amounts of technical material were dissolved in a volume of 97:3 volume per volume (v/v) acetone/dimethyl sulfoxide (DMSO) to stock solutions. […] The concentrated stock solutions were diluted with an aqueous mixture of 1.5% v/v of Agri-dex crop oil concentrate to provide the appropriate application rates. Compound requirements are based upon a 12 milliliter (mL) application volume at a rate of 187 liters per hectare (L/ha). Stocks solutions of the safeners were prepared following the same procedure. […]
as §2, with “Colby's equation was used to determine the herbicidal effects expected from the mixtures.” left out
The safener cloquintocet-mexyl was combined with compound 1, compound 2, compound 4, compound 5, and compound 6, and applied to corn/maize (ZEAMX) and spring wheat (TRZAS) and the phytotoxicity of the herbicidal compositions was measured. In addition, the efficacy of the herbicidal composition on velvetleaf (ABUTH, Abutilon theophrasti), pigweed (AMARE, Amaranthus retroflexus), winter rape (BRSNW, Brassica napus), lambsquarters (CHEAL, Chenopodium album), thistle (CIRAR, Cirsium arvense), nutsedge (CYPES, Cyperus esculentus), poinsettia (EPHHL, Euphorbia heterophylla), wild buckwheat (POLCO, Polygonum convolvulus), giant foxtail (SETFA, Setaria faberi), and chickweed (STEME, Stellaria media) was evaluated. […]

green foxtail (SETVI) = assay: Postemergence greenhouse trial, % visual injury on green foxtail; assay type: in vivo, Setaria viridis
giant foxtail (SETFA) = assay: Postemergence greenhouse trial, % visual injury on giant foxtail; assay type: in vivo, Setaria faberi; conditions: alone, 35 g/ha
Description: as §1
as §3, with “(L/ha).” for “(L/ha). Stocks solutions of the safeners were prepared following the same procedure.”
as §2, with “Colby's equation was used to determine the herbicidal effects expected from the mixtures.” left out
The safener cloquintocet-mexyl was combined with compound 1, compound 2, compound 4, compound 5, and compound 6, and applied to corn/maize (ZEAMX) and spring wheat (TRZAS) and the phytotoxicity of the herbicidal compositions was measured. […]

| Compound | % visual injury, observed (Ob) (common sunflower (HELAN); compound 1 alone 20 g/ha) | % visual injury, observed (Ob) (common sunflower (HELAN); compound 1 alone 40 g/ha) | % visual injury, Ob (poinsettia (EPHHL)) | % visual injury, observed (Ob) (green foxtail (SETVI); compound 2 35 + CQC-m 0 g/ha) | % visual injury, observed (Ob) (green foxtail (SETVI); compound 2 70 + CQC-m 0 g/ha) | % visual injury, observed (Ob) (green foxtail (SETVI); compound 2 140 + CQC-m 0 g/ha) | % visual injury, observed (Ob) (common sunflower (HELAN); safener alone 2.5 g/ha) | % visual injury, observed (Ob) (common sunflower (HELAN); safener alone 5 g/ha) | % visual injury, observed (Ob) (common sunflower (HELAN); safener alone 10 g/ha) | % visual injury, observed (Ob) (common sunflower (HELAN); safener alone 20 g/ha) | % visual injury, Ob (giant foxtail (SETFA)) |
| --- | --- | --- | --- | --- | --- | --- | --- | --- | --- | --- | --- |
| Nc1c(F)c(-c2ccc3cc[nH]c3c2F)nc(C(=O)O)c1Cl [compound 1] | 98% | 100% | – | – | – | – | – | – | – | – | – |
| Nc1c(F)c(-c2ccc3cc[nH]c3c2F)nc(C(=O)OCc2ccccc2)c1Cl [compound 2] | – | – | 100% | 100% | 97% | 98% | – | – | – | – | – |
| CCCCCC(C)OC(=O)COc1ccc(Cl)c2cccnc12 (stereo not drawn) [CQC-m, cloquintocet-mexyl, reference compound] | – | – | 0% | – | – | – | 0% | 0% | 0% | 0% | 0% |
